# In patent US4471131A, “Novel silyl esters of N-phosphonomethylglycine” (Monsanto Company, priority 1983, dated 1984):
# Columns and labels:
# Assay in all cases: post-emergence herbicidal activity, greenhouse
# Assay type in all cases: in vivo
# Downy Brome = tested on: Downy Brome
# Outline: (§1)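 Injury versus control pans was recorded at about 2 and 4 weeks post-treatment. Treatment was post-emergence: an atomizer spray holding roughly 0.4% by weight emulsifier and enough candidate chemical for the tabulated rates, applied to two-to-three-week-old plants raised in top-soil pans.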
# Panicum Spp = conditions: Table III
# Outline: as §1
# Soybean = conditions: Table III
# Outline: as §1
# Morningglory = tested on: Morningglory
# Outline: as §1
# Barnyardgrass = conditions: Table II
# Outline: as §1
# [1] = Table II, 2 WAT, 5.6 kg/h, formulated in anhydrous tetrahydrofuran
# [2] = Table II, 2 WAT, 11.2 kg/h, formulated in anhydrous tetrahydrofuran
# [3] = Table II, 4 WAT, 5.6 kg/h, formulated in anhydrous tetrahydrofuran
# [4] = Table II, 4 WAT, 11.2 kg/h, formulated in anhydrous tetrahydrofuran
# [5] = Table III, 2 WAT, 1.1 kg/h, formulated in anhydrous tetrahydrofuran
# [6] = Table III, 2 WAT, 5.6 kg/h, formulated in anhydrous tetrahydrofuran
# [7] = Table III, 2 WAT, .28 kg/h, formulated in anhydrous tetrahydrofuran
# [8] = Table III, 4 WAT, 1.1 kg/h, formulated in anhydrous tetrahydrofuran
# [9] = Table III, 4 WAT, 5.6 kg/h, formulated in anhydrous tetrahydrofuran
# [10] = Table III, 4 WAT, .28 kg/h, formulated in anhydrous tetrahydrofuran
# [11] = 2 WAT, 1.1 kg/h, formulated in anhydrous tetrahydrofuran
# [12] = 2 WAT, 5.6 kg/h, formulated in anhydrous tetrahydrofuran
# [13] = 2 WAT, .28 kg/h, formulated in anhydrous tetrahydrofuran
# [14] = 4 WAT, 1.1 kg/h, formulated in anhydrous tetrahydrofuran
# [15] = 4 WAT, 5.6 kg/h, formulated in anhydrous tetrahydrofuran
# [16] = 4 WAT, .28 kg/h, formulated in anhydrous tetrahydrofuran
structure (smiles),measurement,setting,value
"CCOC(=O)CNCP(=O)(O)O[Si](c1ccccc1)(c1ccccc1)C(C)(C)C [Ex. 7, Glycine, N--((([(1,1-Dimethylethyl)Diphenylsilyl]Oxy)Hydroxyphosphinyl)Methyl)-,Ethyl Ester]",Plant Response Index (J),"Downy Brome; Table II, 2 WAT, 5.6 kg/h",2 (50-74% inhibition)
same,Plant Response Index (J),Downy Brome; [1],1 (25-49% inhibition)
same,Plant Response Index (J),"Downy Brome; Table II, 2 WAT, 11.2 kg/h",2 (50-74% inhibition)
same,Plant Response Index (J),Downy Brome; [2],1 (25-49% inhibition)
same,Plant Response Index (J),"Downy Brome; Table II, 4 WAT, 5.6 kg/h",3 (75-99% inhibition)
same,Plant Response Index (J),Downy Brome; [3],1 (25-49% inhibition)
same,Plant Response Index (J),"Downy Brome; Table II, 4 WAT, 11.2 kg/h",3 (75-99% inhibition)
same,Plant Response Index (J),Downy Brome; [4],1 (25-49% inhibition)
same,Plant Response Index (J),"Downy Brome; Table III, 2 WAT, 1.1 kg/h",2 (50-74% inhibition)
same,Plant Response Index (J),Downy Brome; [5],1 (25-49% inhibition)
same,Plant Response Index (J),"Downy Brome; Table III, 2 WAT, 5.6 kg/h",2 (50-74% inhibition)
same,Plant Response Index (J),Downy Brome; [6],2 (50-74% inhibition)
same,Plant Response Index (J),"Downy Brome; Table III, 2 WAT, .28 kg/h",1 (25-49% inhibition)
same,Plant Response Index (J),Downy Brome; [7],0 (0-24% inhibition)
same,Plant Response Index (J),"Downy Brome; Table III, 4 WAT, 1.1 kg/h",2 (50-74% inhibition)
same,Plant Response Index (J),Downy Brome; [8],1 (25-49% inhibition)
same,Plant Response Index (J),"Downy Brome; Table III, 4 WAT, 5.6 kg/h",2 (50-74% inhibition)
same,Plant Response Index (J),Downy Brome; [9],3 (75-99% inhibition)
same,Plant Response Index (J),"Downy Brome; Table III, 4 WAT, .28 kg/h",0 (0-24% inhibition)
same,Plant Response Index (J),Downy Brome; [10],0 (0-24% inhibition)
same,Plant Response Index (S),"Panicum Spp; 2 WAT, 1.1 kg/h",4 (100% inhibition)
same,Plant Response Index (S),Panicum Spp; [11],2 (50-74% inhibition)
same,Plant Response Index (S),"Panicum Spp; 2 WAT, 5.6 kg/h",3 (75-99% inhibition)
same,Plant Response Index (S),Panicum Spp; [12],4 (100% inhibition)
same,Plant Response Index (S),"Panicum Spp; 2 WAT, .28 kg/h",3 (75-99% inhibition)
same,Plant Response Index (S),Panicum Spp; [13],1 (25-49% inhibition)
same,Plant Response Index (S),"Panicum Spp; 4 WAT, 1.1 kg/h",4 (100% inhibition)
same,Plant Response Index (S),Panicum Spp; [14],2 (50-74% inhibition)
same,Plant Response Index (S),"Panicum Spp; 4 WAT, 5.6 kg/h",4 (100% inhibition)
same,Plant Response Index (S),Panicum Spp; [15],4 (100% inhibition)
same,Plant Response Index (S),"Panicum Spp; 4 WAT, .28 kg/h",3 (75-99% inhibition)
same,Plant Response Index (S),Panicum Spp; [16],1 (25-49% inhibition)
same,Plant Response Index (L),"Soybean; 2 WAT, 1.1 kg/h",2 (50-74% inhibition)
same,Plant Response Index (L),Soybean; [11],1 (25-49% inhibition)
same,Plant Response Index (L),"Soybean; 2 WAT, 5.6 kg/h",2 (50-74% inhibition)
same,Plant Response Index (L),Soybean; [12],2 (50-74% inhibition)
same,Plant Response Index (L),"Soybean; 2 WAT, .28 kg/h",0 (0-24% inhibition)
same,Plant Response Index (L),Soybean; [13],1 (25-49% inhibition)
same,Plant Response Index (L),"Soybean; 4 WAT, 1.1 kg/h",1 (25-49% inhibition)
same,Plant Response Index (L),Soybean; [14],1 (25-49% inhibition)
same,Plant Response Index (L),"Soybean; 4 WAT, 5.6 kg/h",1 (25-49% inhibition)
same,Plant Response Index (L),Soybean; [15],2 (50-74% inhibition)
same,Plant Response Index (L),"Soybean; 4 WAT, .28 kg/h",0 (0-24% inhibition)
same,Plant Response Index (L),Soybean; [16],1 (25-49% inhibition)
same,Plant Response Index (D),"Morningglory; Table II, 2 WAT, 5.6 kg/h",2 (50-74% inhibition)
same,Plant Response Index (D),Morningglory; [1],2 (50-74% inhibition)
same,Plant Response Index (D),"Morningglory; Table II, 2 WAT, 11.2 kg/h",2 (50-74% inhibition)
same,Plant Response Index (D),Morningglory; [2],1 (25-49% inhibition)
same,Plant Response Index (D),"Morningglory; Table II, 4 WAT, 5.6 kg/h",2 (50-74% inhibition)
same,Plant Response Index (D),Morningglory; [3],2 (50-74% inhibition)
same,Plant Response Index (D),"Morningglory; Table II, 4 WAT, 11.2 kg/h",2 (50-74% inhibition)
same,Plant Response Index (D),Morningglory; [4],2 (50-74% inhibition)
same,Plant Response Index (D),"Morningglory; Table III, 2 WAT, 1.1 kg/h",2 (50-74% inhibition)
same,Plant Response Index (D),Morningglory; [5],2 (50-74% inhibition)
same,Plant Response Index (D),"Morningglory; Table III, 2 WAT, 5.6 kg/h",2 (50-74% inhibition)
same,Plant Response Index (D),Morningglory; [6],2 (50-74% inhibition)
same,Plant Response Index (D),"Morningglory; Table III, 2 WAT, .28 kg/h",2 (50-74% inhibition)
same,Plant Response Index (D),Morningglory; [7],1 (25-49% inhibition)
same,Plant Response Index (D),"Morningglory; Table III, 4 WAT, 1.1 kg/h",2 (50-74% inhibition)
same,Plant Response Index (D),Morningglory; [8],2 (50-74% inhibition)
same,Plant Response Index (D),"Morningglory; Table III, 4 WAT, 5.6 kg/h",3 (75-99% inhibition)
same,Plant Response Index (D),Morningglory; [9],3 (75-99% inhibition)
same,Plant Response Index (D),"Morningglory; Table III, 4 WAT, .28 kg/h",1 (25-49% inhibition)
same,Plant Response Index (D),Morningglory; [10],1 (25-49% inhibition)
same,Plant Response Index (K),"Barnyardgrass; 2 WAT, 5.6 kg/h",3 (75-99% inhibition)
same,Plant Response Index (K),Barnyardgrass; [12],1 (25-49% inhibition)
same,Plant Response Index (K),"Barnyardgrass; 2 WAT, 11.2 kg/h",3 (75-99% inhibition)
same,Plant Response Index (K),"Barnyardgrass; 2 WAT, 11.2 kg/h, formulated in anhydrous tetrahydrofuran",2 (50-74% inhibition)
same,Plant Response Index (K),"Barnyardgrass; 4 WAT, 5.6 kg/h",3 (75-99% inhibition)
same,Plant Response Index (K),Barnyardgrass; [15],2 (50-74% inhibition)
